Measured values as given in patent publication US20230285347A1, “Preterm Labour with Prostaglandin E2 Receptor Agonists” (IMPERIAL COLLEGE INNOVATIONS LIMITED, priority 2020, published 2023).

Columns and labels:
EP2 [1] = molecular target: T1, EP2 (Homo sapiens, UniProt P43116); test: Intracellular calcium response in primary myometrial cells; type: cell-based; settings: PGN9856i 100 nM, FIG. 6
T1 construct: primary human myocytes cultured from term pregnant, non-labouring, myometrium; endogenous in cells; host or cells: primary human myometrial cells (myocytes) cultured from pregnant myometrium
From the text: One-way ANOVA with Dunnet's multiple comparison post-hoc test: **p<0.01, and (B) calcium intensity traces over time from representative cells from (A). PGN9856i is unable to elicit intracellular calcium release in primary myometrial cells.
In the myometrium EP2 is an important regulator of parturition. To assess if PGN9856i, butaprost and AH13205 induce similar second messenger profiles in the myometrium as HEK 293 cells, primary human myocytes cultured from term pregnant, non-labouring, myometrium, were treated with each ligand and intracellular cAMP, calcium and PGE2 release was measured.
Myometrial tissue was acquired at St. Mary's hospital, Queen Charlotte and Chelsea hospital and Charing Cross hospital, London. Tissue was obtained from women provided with informed written consent with the approval from the Riverside Research Ethics Committee (RREC 3357, 1997-5089, 19/LO/1657) and experiments were carried out under the committee's guidelines and recommendations. Tissues were obtained from term (38+0-40 weeks gestation) pregnant women undergoing elective caesarean from the upper margin of the incision made at the lower segment of the uterus, before or after the onset of labor. Tissues taken from women in early labour (<3 cm cervical dilation) or late labour (>3 cm cervical dilation) with/without induction with syntocinon, an oxytocin analogue. […]

EP2 [2] = molecular target: T1, EP2; test: cAMP signalling in myometrial cells from different labouring groups, EP2 agonist; type: cell-based; settings: butaprost 10 μM, FIG. 8
Method: L=non-labouring, L+E=early stage spontaneous labour, L+L=late stage spontaneous labour, L+SE=early stage induced labour, L+SL=late stage induced labour. Myometrial cells from different labouring groups were treated with IBMX (5 minutes, 0.5 mM) before 1 minute stimulation with IBMX with/without butaprost (10 μM) or isoproterenol (10 μM). cAMP concentrations were normalised to protein. Data shown as mean±SEM, L−n=4. All other groups n=5. Each treatment compared to L− using one-way ANOVA with Dunnett's multiple comparison post-hoc test: **p<0.01, ***p<0.001, ****p<0.0001.
Myometrial tissue was acquired at St. Mary's hospital, Queen Charlotte and Chelsea hospital and Charing Cross hospital, London. Tissue was obtained from women provided with informed written consent with the approval from the Riverside Research Ethics Committee (RREC 3357, 1997-5089, 19/LO/1657) and experiments were carried out under the committee's guidelines and recommendations. Tissues were obtained from term (38+0-40 weeks gestation) pregnant women undergoing elective caesarean from the upper margin of the incision made at the lower segment of the uterus, before or after the onset of labor. Tissues taken from women in early labour (<3 cm cervical dilation) or late labour (>3 cm cervical dilation) with/without induction with syntocinon, an oxytocin analogue. Tissue was only taken from uncomplicated, singleton pregnancies.
Tissue was stored at 4° C. in phosphate buffered saline until fine dissection with scalpels and dissociation at 37° C. for 1 hour in a sterile-filtered mix of Dulbecco's modified Eagle's medium (DMEM) (Sigma Aldrich)/Ham's F-12 Nutrient Mixture (Sigma Aldrich) and serum-free DMEM (Sigma Aldrich) (1:1 v/v) containing collagenase 1A (Sigma Aldrich)(1 mg/ml), collagenase X (Sigma Aldrich)(1 mg/ml) and bovine serum albumin (Sigma Aldrich) (2 mg/ml). Dissociation was ended using DMEM 10% fetal bovine serum (Sigma Aldrich) and cell suspension was obtained using a 40-μm cell strainer before centrifugation at 3000 rpm for 5 minutes. […]

T1 sequence (P43116 whole entry): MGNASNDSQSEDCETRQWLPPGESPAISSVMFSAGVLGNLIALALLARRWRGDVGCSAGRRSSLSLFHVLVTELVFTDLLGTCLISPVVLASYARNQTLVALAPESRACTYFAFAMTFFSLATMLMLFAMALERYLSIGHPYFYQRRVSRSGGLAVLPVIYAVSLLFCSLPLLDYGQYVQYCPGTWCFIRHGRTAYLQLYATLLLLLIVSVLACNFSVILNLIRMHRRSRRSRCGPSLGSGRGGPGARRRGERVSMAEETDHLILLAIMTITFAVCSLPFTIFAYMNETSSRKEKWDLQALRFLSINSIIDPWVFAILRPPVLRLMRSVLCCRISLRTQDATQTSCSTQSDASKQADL

SMILES | activation of calcium pathway (EP2 [1]) | agonist-induced cAMP signalling in labouring groups vs non-labouring (EP2 [2]; all labouring groups) | reduction of agonist-stimulated cAMP, non-labouring vs spontaneous early labour (EP2 [2]; spontaneous early labour samples) | reduction of agonist-stimulated cAMP, non-labouring vs spontaneous late labour (EP2 [2]; spontaneous late labour samples)
CC(C)OC(=O)COc1cccc(NC(=O)c2cc(-c3cccc(F)c3)ccc2F)c1 [PGN9856i, propan-2-yl 2-(3-{3′,4-difluoro-[1,1′-biphenyl]-3-amido}phenoxy)acetate] | unable to activate calcium | – | – | –
CCCC1([C@H](O)C/C=C/[C@H]2[C@H](O)CC(=O)[C@@H]2CCCCCCC(=O)OC)CCC1 [butaprost] | – | significantly attenuated in all labouring groups | 2.5 fold | 10 fold
